In ChEMBL document CHEMBL4340504, “Caged-xanthone from Cratoxylum formosum ssp. pruniflorum inhibits malignant cancer phenotypes in multidrug-resistant human A549 lung cancer cells through down-regulation of NF-κB” (Bioorg Med Chem, 2019):
Values after ≈ are worked out from the molar mass of the structure shown. Active and inactive are the calls of the source. The rule behind the calls is not given here.

Assays:
A549 = experiment: Cytotoxicity against human A549 cells assessed as reduction in cell viability after 72 hrs by MTT assay; format: functional, cell-based; settings: A549, 72 h
Homo sapiens [1] = species on record: Homo sapiens; experiment: Inhibition of NFkappaB in human A549RT-eto cells assessed as suppression of sphere formation by measuring decrease in number of spheroid formation at 1.5 ug/mL treated for 24 hrs followed by cell culture for 6 days and measured over 48 hrs by optical microscopic method; format: cell-based
Homo sapiens [2] = species on record: Homo sapiens; experiment: Inhibition of NFkappaB in human A549RT-eto cells assessed as reduction in epithelial-mesenchymal transition by measuring down regulation of N-Cadherin expression at 1 to 1.5 ug/ml after 24 hrs by immunoblotting analysis; format: cell-based
Homo sapiens [3] = species on record: Homo sapiens; experiment: Induction of apoptosis in human A549RT-eto cells transfected with NF-kappaB siRNA assessed as increase in pro-caspase 8 expression at 1.5 ug/ml by immunoblotting analysis; format: functional, cell-based
Homo sapiens [4] = species on record: Homo sapiens; experiment: Down regulation of NFkappaB expression in human A549RT-eto cells transfected with NF-kappaB siRNA at 1.5 ug/ml by immunoblotting analysis; format: functional, cell-based
Homo sapiens [5] = species on record: Homo sapiens; experiment: Down regulation of P-gp expression in human A549RT-eto cells transfected with NF-kappaB siRNA at 1.5 ug/ml by immunoblotting analysis; format: functional, cell-based
Homo sapiens [6] = species on record: Homo sapiens; experiment: Inhibition of NFkappaB in human A549RT-eto cells assessed as downregulation of Nanog expression by immunoblotting analysis; format: cell-based
Homo sapiens [7] = species on record: Homo sapiens; experiment: Induction of apoptosis in human A549RT-eto cells assessed as increase in PARP level at 1 to 5 ug/ml measured after 24 hrs by immunoblotting analysis; format: functional, cell-based
Homo sapiens [8] = species on record: Homo sapiens; experiment: Inhibition of NFkappaB in human A549RT-eto cells assessed as suppression of sphere formation by measuring decrease in spheroid size at 1.5 ug/mL treated for 24 hrs followed by cell culture for 6 days and measured over 48 hrs by optical microscopic method; format: cell-based
Homo sapiens [9] = species on record: Homo sapiens; experiment: Induction of apoptosis in human A549RT-eto cells transfected with NF-kappaB siRNA assessed as increase in pro-caspase 9 expression at 1.5 ug/ml by immunoblotting analysis; format: functional, cell-based
Homo sapiens [10] = species on record: Homo sapiens; experiment: Cytotoxicity against human A549RT-eto cells assessed as cell death after 24 hrs by MTT assay; format: functional, cell-based
Homo sapiens [11] = species on record: Homo sapiens; experiment: Inhibition of NFkappaB in human A549RT-eto cells assessed as down regulation of P-gp expression at 1 to 5 ug/ml measured after 24 hrs by immunoblotting analysis; format: cell-based
Homo sapiens [12] = species on record: Homo sapiens; experiment: Induction of apoptosis in human A549RT-eto cells assessed as reduction in […] 8 level at 1 to 5 ug/ml measured after 24 hrs by immunoblotting analysis; format: functional, cell-based
Homo sapiens [13] = species on record: Homo sapiens; experiment: Induction of apoptosis in human A549RT-eto cells assessed as reduction in […] 9 level at 1 to 5 ug/ml measured after 24 hrs by immunoblotting analysis; format: functional, cell-based
Homo sapiens [14] = species on record: Homo sapiens; experiment: Down regulation of NFkappaB expression in human A549RT-eto cells at 1 to 5 ug/ml measured after 24 hrs by immunoblotting analysis; format: functional, cell-based
Homo sapiens [15] = species on record: Homo sapiens; experiment: (§1) Cytotoxicity against human A549RT-eto cells assessed as reduction in cell viability after 72 hrs by MTT assay; format: functional, cell-based
[16] = as §1; format: functional, cell-based
Homo sapiens [17] = species on record: Homo sapiens; experiment: Inhibition of NFkappaB in human A549RT-eto cells assessed as down regulation of Oct4 expression by immunoblotting analysis; format: cell-based
Homo sapiens [18] = species on record: Homo sapiens; experiment: Inhibition of NFkappaB in human A549RT-eto cells assessed as reduction in epithelial-mesenchymal transition by measuring up regulation of E-Cadherin expression at 1 to 1.5 ug/ml after 24 hrs by immunoblotting analysis; format: cell-based
Homo sapiens [19] = species on record: Homo sapiens; experiment: Inhibition of NFkappaB in human A549RT-eto cells assessed as reduction in epithelial-mesenchymal transition by measuring down regulation of vimentin expression at 1 to 1.5 ug/ml after 24 hrs by immunoblotting analysis; format: cell-based
Homo sapiens [20] = species on record: Homo sapiens; experiment: Inhibition of NFkappaB in human A549RT-eto cells assessed as down regulation of S0x2 expression by immunoblotting analysis; format: cell-based
[21] = Antiinvasive activity in human A549RT-eto cells assessed as reduction in cell invasion at 1.5 ug/ml measured after 24 hrs using hematoxylin-eosin by microscopy-based transwell assay relative to control; format: functional
Homo sapiens [22] = species on record: Homo sapiens; experiment: Antimigratory activity in human A549RT-eto cells assessed as decrease in cell migration at 1.5 ug/ml for 24 hrs by phase contrast microscopy-based scratch would healing assay; format: functional
Homo sapiens [23] = species on record: Homo sapiens; experiment: Induction of apoptosis in human A549RT-eto cells transfected with NF-kappaB siRNA assessed as increase in cleaved PARP expression at 1.5 ug/ml by immunoblotting analysis; format: functional, cell-based
Homo sapiens [24] = species on record: Homo sapiens; experiment: Inhibition of NFkappaB in human A549RT-eto cells assessed as down regulation of Bmi1 expression by immunoblotting analysis; format: cell-based

CO[C@@]12C=C3C(=O)c4c(O)cccc4O[C@@]34[C@@H](C1)C(C)(C)O[C@@]4(CC=C(C)C)C2=O
IC50 (A549): 2.51 µg/mL (≈ 6.12 µM)
inhibition (Homo sapiens [1]): Active
inhibition (Homo sapiens [2]): Active
Activity (Homo sapiens [3]): Active
Activity (Homo sapiens [4]): Active
Activity (Homo sapiens [5]): Active
inhibition (Homo sapiens [6]): Dose-dependent effect
Activity (Homo sapiens [7]): Active
inhibition (Homo sapiens [8]): Active
Activity (Homo sapiens [9]): Active
Activity (Homo sapiens [10]): Active
inhibition (Homo sapiens [11]): Active
Activity (Homo sapiens [12]): Active
Activity (Homo sapiens [13]): Active
Activity (Homo sapiens [14]): Active
Activity (Homo sapiens [15]): Dose-dependent effect
IC50 [16]: 4.96 µg/mL (≈ 12.1 µM)
inhibition (Homo sapiens [17]): Dose-dependent effect
inhibition (Homo sapiens [18]): Active
inhibition (Homo sapiens [19]): Active
inhibition (Homo sapiens [20]): Dose-dependent effect
fold change (FC) [21]: 2
Activity (Homo sapiens [22]): Active
Activity (Homo sapiens [23]): Active
inhibition (Homo sapiens [24]): Dose-dependent effect
